Results on two compounds are retold here after US20260138970A1, “MODULATORS OF THE CALCIUM SIGNALING CASCADE” (FONDAZIONE TELETHON ETS, priority 2022, published 2026).

Molecules are shown by their SMILES.

Common to all, as to type: cell-based
Test [1] has as its system TMEM16A. The test is described as follows: HS-YFP assay in ITPR-defective HEK293 cells transiently transfected with TMEM16A. The following applies: UTP 5 μM, compound 10 μM, FIG. 2D.
The target in test [2] is ITPR1 (Homo sapiens, UniProt Q14643). The test is described as follows: ci-IP3/PM uncaging assay in HEK293 cells with selective expression of ITPR1 (HEKR1). Particulars: compounds 10 μM; FIG. 4B. Further details: host or cells: HEKR1 (HEK293). Here is the method: HEK293 cells totally devoid of ITPR expression (HEK3XKO) or with selective expression of ITPR1 (HEKR1), ITPR2 (HEKR2), or ITPR3 (HEKR3), obtained by selective gene ablation, were purchased from Kerafast (catalog number: EURO30, EURO31, EURO32, EURO33) and cultured in a mixture of Dulbecco's Modified Eagle Medium (DMEM, high glucose version) and Ham's F12 (1:1) and supplemented with 10% fetal bovine serum, 2 mM L-glutamine, 100 U/ml penicillin and 100 μg/ml streptomycin.
FRT and HEK293 cells were cultured in μ-Plate96 microplates (Ibidi) at subconfluent condition. Cells were washed 2 times with PBS (150 μl/wash) and then loaded for 45 min at 37° C. with 1 μM ci-IP3/PM (Tocris; catalog number: 6210/10U) and 5 μM Fluo-4/AM (Thermo Fisher Scientific) in PBS containing 10 mM glucose, 0.5 mM sulfinpyrazone and 1% fetal bovine serum. After 45 min, cells were further incubated for 1 h at 37° C. with a fresh PBS solution containing Fluo-4/AM, glucose, sulfinpyrazone, serum, but no ci-IP3/PM. […] Analysis was performed with MetaFluor software, by quantifying Fluo-4 fluorescence in manually selected single cell region of interest (ROI). […] After background subtraction, fluorescence traces were normalized for the initial value.

Test [3] relates to protease-activated receptors. The test is described as follows: Fluo-4 Ca2+ assay, SLIGR-NH2 stimulus, HEKR2 cells. Particulars: SLIGR-NH2 4 μM; compounds 10 μM; FIG. 5C bottom. The procedure:
Experiments were performed using the microplate reader described for the HS-YFP assay. FRT and HEK293 cells were cultured until confluence in 96-well microplates (3603, Corning). Cells were washed 2 times with PBS (150 μl/wash) and then loaded for 1 h at 37° C. with 5 μM Fluo-4/AM (Thermo Fisher Scientific; catalog number: F23917) in PBS containing 10 mM glucose, 0.5 mM sulfinpyrazone, and 1% fetal bovine serum. After loading, cells were washed 2 times with PBS-glucose-sulfinpyrazone (150 μl/wash) and incubated for 20 min at 37° C. with 60 μl of PBS plus 10 mM glucose and 0.5 mM sulfinpyrazone containing compounds of interest at 10 μM final concentration or vehicle. Each well was assayed individually. Fluo-4 fluorescence (500 nm excitation, 535 nm emission) was detected every 200 ms for 16-40 s. Two seconds after the start of fluorescence recording, the reader automatically injected 165 μl of a modified PBS containing 136 mM KCl instead of NaCl. This solution also contained 10 mM glucose, 0.5 mM sulfinpyrazone, and UTP or SLIGR-NH2 (CAS #171436-38-7) at a final concentration that depended on the specific cell type. […] The Fluo-4 fluorescence increase was quantified using a procedure compiled in Microsoft Excel after background subtraction and normalization for the initial value measured before UTP addition.

Sequence of ITPR1 (Q14643 whole entry): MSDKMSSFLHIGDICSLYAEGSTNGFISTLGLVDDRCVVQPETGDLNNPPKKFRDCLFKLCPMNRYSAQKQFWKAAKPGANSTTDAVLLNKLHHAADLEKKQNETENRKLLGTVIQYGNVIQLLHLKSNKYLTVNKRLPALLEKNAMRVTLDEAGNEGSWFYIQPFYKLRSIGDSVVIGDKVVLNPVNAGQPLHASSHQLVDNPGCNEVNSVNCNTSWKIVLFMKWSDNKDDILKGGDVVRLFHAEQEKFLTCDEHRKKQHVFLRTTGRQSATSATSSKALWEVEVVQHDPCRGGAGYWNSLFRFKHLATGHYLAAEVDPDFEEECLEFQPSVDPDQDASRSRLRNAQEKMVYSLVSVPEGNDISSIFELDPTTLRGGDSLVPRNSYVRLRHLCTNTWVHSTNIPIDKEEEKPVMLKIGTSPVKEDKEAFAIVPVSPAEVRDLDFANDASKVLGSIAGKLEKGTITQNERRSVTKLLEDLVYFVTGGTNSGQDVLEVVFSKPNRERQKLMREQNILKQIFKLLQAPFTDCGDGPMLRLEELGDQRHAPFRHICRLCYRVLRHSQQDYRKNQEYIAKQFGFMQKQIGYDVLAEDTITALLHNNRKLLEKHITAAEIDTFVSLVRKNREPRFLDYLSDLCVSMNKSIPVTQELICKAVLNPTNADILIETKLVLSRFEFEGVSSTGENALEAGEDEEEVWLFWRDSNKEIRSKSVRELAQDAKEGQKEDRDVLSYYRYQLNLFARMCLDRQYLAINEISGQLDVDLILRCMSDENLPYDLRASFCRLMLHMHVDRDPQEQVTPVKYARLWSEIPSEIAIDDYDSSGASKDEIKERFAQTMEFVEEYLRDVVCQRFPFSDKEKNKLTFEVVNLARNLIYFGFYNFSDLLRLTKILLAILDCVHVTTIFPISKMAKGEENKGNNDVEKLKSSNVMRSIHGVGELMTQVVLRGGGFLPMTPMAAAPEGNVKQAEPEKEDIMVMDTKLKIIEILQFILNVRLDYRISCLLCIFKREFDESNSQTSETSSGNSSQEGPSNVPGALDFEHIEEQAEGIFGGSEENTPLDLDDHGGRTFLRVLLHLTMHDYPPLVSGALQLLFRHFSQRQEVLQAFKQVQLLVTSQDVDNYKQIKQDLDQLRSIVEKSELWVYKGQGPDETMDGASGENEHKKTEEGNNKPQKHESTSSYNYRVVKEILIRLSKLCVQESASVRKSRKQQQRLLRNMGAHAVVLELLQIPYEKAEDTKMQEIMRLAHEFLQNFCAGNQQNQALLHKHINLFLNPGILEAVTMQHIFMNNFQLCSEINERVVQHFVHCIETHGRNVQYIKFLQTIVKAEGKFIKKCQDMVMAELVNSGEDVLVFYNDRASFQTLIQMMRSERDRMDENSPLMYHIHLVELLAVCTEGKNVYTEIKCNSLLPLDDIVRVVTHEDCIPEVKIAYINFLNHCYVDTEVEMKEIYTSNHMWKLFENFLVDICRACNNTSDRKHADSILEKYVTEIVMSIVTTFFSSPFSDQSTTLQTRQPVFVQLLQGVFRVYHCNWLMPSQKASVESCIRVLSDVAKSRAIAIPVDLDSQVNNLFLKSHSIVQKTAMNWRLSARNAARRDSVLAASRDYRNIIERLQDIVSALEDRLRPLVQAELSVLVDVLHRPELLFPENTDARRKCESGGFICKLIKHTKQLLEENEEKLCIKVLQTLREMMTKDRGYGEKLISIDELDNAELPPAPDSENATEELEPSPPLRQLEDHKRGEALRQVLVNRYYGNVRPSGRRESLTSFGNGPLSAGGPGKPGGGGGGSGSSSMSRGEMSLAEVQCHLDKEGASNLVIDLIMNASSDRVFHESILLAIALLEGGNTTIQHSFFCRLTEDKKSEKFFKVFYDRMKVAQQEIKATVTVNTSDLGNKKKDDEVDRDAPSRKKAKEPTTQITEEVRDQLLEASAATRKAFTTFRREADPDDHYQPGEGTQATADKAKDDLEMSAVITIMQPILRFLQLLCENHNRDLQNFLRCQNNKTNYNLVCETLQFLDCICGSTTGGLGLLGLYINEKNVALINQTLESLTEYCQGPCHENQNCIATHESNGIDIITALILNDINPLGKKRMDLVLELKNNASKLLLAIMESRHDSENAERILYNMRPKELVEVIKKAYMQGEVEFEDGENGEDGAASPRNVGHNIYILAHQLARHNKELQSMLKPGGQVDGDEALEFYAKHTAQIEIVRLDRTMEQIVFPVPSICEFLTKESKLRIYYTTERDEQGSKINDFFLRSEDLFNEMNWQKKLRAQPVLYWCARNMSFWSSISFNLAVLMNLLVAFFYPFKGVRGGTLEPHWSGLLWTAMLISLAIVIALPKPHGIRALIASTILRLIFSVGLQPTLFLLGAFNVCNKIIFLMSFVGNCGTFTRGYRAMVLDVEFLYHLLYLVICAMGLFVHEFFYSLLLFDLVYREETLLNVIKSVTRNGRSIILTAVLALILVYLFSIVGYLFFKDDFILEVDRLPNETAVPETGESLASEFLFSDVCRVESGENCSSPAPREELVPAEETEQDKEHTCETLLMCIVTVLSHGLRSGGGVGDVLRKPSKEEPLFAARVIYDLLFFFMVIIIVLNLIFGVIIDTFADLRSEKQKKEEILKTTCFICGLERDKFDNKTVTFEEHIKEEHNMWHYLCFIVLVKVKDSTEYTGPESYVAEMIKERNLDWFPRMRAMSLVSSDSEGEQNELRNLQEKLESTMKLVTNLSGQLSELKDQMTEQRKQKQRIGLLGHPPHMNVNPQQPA

As for `CCn1nc2c(c1C(=O)Nc1ccccc1OCC1CCCCO1)CCCC2` (stereo not drawn) [ARN11391, 2-Ethyl-N-[2-(tetrahydropyran-2-ylmethoxy)phenyl]-4,5,6,7-tetrahydroindazole-3-carboxamide], the “activation of TMEM16A by UTP with/without compound (HS-YFP)” value in test [1] was “no activation”. For the same compound, the “activity on Ca2+ mobilization by IP3 uncaging, cells with selective expression of ITPR1” value in test [2] is “uniquely effective”. As for `OCc1ccccc1CN(Cc1ccnc(N2CCCC2)n1)c1ccc(F)cc1` [ARN4550, [2-[[4-Fluoro-N-[(2-pyrrolidin-1-ylpyrimidin-4-yl)methyl]anilino]methyl]phenyl]methanol], the “potentiation of SLIGR-NH2 stimulus (Ca2+ mobilization), HEKR2 cells” value in test [3] is given as “only compound that potentiated”.
